Earlier results in patent US20050202101A1, “Method and composition for preventing or reducing the symptoms of insulin resistance syndrome” (Interhealth Nutraceuticals Incorporated, priority 2001, published 2005).

System: obese women
Conditions: with exercise

For chromium picolinate, the body weight change is listed as “significant weight gain”.
